Results from US20120277161A1, “INHIBITION OF MULTIPLE CELL ACTIVATION PATHWAYS” (INTER-K PTY LIMITED, priority 2009, published 2012).

How the values were obtained:
PI3K P110δ = PI3K P110δ (Homo sapiens, UniProt O00329); assay: PI3K HTRF activity assay; assay type: biochemical; details: dendrimer conc. 1 μM; read-out: Percentage (%) kinase inhibition PI3K P110δ
Protocol: (§1) In a final reaction volume of 20 μL, the test PI3K is incubated in assay buffer containing 10 μM phosphatidylinositol-4,5-bisphosphate and MgATP. The reaction is initiated by the addition of the MgATP mix. After incubation for 30 minutes at room temperature, the reaction is stopped by the addition of 5 μL of stop solution containing EDTA and biotinylated phosphatidylinositol-3,4,5-trisphosphate. Finally, 5 μL of detection buffer is added (containing europium-labelled anti-GST monoclonal antibody, GST-tagged GRP1 PH domain and streptavidin-allophycocyanin). The test plate is then read in time-resolved fluorescence mode and the homogenous time-resolved fluorescence (HTRF) signal is determined according to the formula HTRF=10000×(Em665 nm/Em620 nm).

PI3K beta = PI3K beta (Homo sapiens, UniProt P42338); assay: PI3K HTRF activity assay; assay type: biochemical
Sequence of PI3K beta (P42338 whole entry, species assumed): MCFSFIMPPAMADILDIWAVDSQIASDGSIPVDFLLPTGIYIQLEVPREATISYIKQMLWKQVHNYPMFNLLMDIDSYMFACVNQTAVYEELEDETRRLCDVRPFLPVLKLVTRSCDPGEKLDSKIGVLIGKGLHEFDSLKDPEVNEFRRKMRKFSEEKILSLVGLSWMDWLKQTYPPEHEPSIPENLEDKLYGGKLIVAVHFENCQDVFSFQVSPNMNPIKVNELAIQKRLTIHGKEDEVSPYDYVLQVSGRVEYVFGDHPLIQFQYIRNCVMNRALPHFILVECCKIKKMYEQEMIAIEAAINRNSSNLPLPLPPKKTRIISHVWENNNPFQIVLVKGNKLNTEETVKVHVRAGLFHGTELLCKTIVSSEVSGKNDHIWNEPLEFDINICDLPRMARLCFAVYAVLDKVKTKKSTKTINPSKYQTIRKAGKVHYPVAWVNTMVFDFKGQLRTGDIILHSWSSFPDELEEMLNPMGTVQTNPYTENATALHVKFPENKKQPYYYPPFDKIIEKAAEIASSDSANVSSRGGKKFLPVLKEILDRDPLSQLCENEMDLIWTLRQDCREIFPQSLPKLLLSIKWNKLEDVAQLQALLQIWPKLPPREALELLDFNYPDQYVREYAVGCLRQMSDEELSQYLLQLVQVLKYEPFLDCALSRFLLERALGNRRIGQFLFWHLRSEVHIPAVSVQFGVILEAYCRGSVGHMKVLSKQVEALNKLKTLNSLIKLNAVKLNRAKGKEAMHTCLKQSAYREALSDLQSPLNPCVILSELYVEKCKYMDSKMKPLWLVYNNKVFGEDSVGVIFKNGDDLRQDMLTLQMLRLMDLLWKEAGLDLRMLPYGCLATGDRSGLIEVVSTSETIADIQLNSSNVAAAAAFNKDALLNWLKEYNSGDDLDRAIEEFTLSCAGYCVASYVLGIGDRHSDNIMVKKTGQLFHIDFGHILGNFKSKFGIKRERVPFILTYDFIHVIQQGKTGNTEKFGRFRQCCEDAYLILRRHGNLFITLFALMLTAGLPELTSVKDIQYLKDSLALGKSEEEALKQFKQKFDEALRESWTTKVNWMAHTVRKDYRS
Sequence of PI3K beta (P27986 whole entry partner, species assumed): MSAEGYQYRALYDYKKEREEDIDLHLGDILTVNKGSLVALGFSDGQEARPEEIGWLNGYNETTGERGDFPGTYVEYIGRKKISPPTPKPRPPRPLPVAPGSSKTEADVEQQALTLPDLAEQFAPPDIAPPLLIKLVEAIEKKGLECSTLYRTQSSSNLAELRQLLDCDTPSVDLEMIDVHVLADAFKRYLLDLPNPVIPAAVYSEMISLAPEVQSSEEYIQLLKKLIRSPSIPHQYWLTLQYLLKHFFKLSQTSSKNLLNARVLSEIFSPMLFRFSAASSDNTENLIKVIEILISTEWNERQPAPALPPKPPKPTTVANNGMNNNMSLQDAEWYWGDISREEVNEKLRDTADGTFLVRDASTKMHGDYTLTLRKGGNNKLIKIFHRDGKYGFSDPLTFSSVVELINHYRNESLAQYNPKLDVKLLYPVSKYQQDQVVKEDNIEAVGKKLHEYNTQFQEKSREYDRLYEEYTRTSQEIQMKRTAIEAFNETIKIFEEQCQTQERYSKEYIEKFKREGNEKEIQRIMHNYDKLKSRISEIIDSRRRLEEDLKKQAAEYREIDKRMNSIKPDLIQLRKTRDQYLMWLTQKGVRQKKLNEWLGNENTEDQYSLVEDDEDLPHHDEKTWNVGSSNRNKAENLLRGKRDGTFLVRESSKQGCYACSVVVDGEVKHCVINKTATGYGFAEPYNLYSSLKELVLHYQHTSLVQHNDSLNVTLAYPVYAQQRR
Protocol: as §1

PKC alpha = PKC alpha (Homo sapiens, UniProt P17252); assay: PKC kinase activity assay; assay type: biochemical; details: dendrimer conc. 1 μM; read-out: Percentage (%) kinase inhibition PKC alpha
Protocol: (§2) In a final reaction volume of […] PKC kinase (h) (5-10 mU) is incubated with 20 mM HEPES pH 7.4, 0.03% Triton X-100, […], 0.1 mg/mL phosphatidylserine, 10 μg/mL diacylglycerol, 0.1 mg/mL histone H1 or 50 μM of the peptide ERMRPRKRQGSVRRRV (SEQ ID No. 20), 10 mM MgAcetate and [γ-33P-ATP] (specific activity approx. 500 cpm/pmol, concentration as required). The reaction is initiated by the addition of the MgATP mix. After incubation for 40 minutes at room temperature, the reaction is stopped by the addition of 5 μL of a 3% phosphoric acid solution. 10 μL of the reaction is then spotted onto a P30 filtermat and washed three times for 5 minutes in 75 mM phosphoric acid and once in methanol prior to drying and scintillation counting.

PKC beta I = PKC beta I (Homo sapiens, UniProt P05771); assay: PKC kinase activity assay; assay type: biochemical; details: dendrimer conc. 1 μM; read-out: Percentage (%) kinase inhibition PKC beta I
Sequence of PKC beta I (P05771 whole entry): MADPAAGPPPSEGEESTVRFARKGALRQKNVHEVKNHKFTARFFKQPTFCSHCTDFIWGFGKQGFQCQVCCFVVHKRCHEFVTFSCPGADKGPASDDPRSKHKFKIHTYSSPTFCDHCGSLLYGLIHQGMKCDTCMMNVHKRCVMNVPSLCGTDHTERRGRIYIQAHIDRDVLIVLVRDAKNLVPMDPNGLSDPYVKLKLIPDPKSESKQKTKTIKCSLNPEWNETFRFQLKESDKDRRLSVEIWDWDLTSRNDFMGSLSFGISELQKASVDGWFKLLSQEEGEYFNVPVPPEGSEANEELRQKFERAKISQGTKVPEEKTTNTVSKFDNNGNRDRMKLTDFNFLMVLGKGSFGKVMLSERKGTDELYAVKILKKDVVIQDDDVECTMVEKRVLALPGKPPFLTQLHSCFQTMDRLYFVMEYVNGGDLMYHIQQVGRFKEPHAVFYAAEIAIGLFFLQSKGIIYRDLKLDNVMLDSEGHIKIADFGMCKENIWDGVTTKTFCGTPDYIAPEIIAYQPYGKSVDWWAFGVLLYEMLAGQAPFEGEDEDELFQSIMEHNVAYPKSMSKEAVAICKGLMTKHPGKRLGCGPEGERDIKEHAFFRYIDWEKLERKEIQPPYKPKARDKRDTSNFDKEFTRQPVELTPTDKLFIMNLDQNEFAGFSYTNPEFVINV
Protocol: as §2

PKC beta II = PKC beta II (Homo sapiens, UniProt P05771); assay: PKC kinase activity assay; assay type: biochemical; details: dendrimer conc. 1 μM; read-out: Percentage (%) kinase inhibition PKC beta II
Sequence of PKC beta II (P05771 1-673 isoform P05771-2): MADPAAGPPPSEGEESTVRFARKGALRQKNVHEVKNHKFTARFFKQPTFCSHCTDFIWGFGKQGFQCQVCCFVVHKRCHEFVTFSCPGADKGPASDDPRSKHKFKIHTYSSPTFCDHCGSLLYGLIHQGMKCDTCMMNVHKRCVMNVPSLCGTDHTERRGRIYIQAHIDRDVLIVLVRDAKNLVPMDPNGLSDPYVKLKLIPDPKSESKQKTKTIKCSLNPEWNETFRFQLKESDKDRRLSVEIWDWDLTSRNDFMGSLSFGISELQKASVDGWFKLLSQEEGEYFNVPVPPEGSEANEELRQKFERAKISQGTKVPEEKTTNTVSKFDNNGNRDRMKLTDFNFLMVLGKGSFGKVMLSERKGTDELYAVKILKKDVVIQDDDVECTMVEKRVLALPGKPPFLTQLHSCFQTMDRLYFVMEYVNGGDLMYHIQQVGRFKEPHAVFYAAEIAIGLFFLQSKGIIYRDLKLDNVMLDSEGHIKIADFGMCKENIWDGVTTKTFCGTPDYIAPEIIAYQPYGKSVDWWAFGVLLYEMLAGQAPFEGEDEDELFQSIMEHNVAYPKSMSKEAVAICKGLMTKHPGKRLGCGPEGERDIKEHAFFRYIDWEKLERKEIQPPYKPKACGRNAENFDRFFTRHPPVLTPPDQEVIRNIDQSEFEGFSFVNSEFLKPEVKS
Protocol: as §2

[1] = system: HT29 human colorectal adenocarcinoma tumour; assay: Inhibition of HT29 tumour growth in a mouse model; assay type: in vivo, Mouse (Mus musculus) BALB/c nu/nu; details: for Tumour volume Delta avg: change from day 0; for dT/dC [%]: versus vehicle
Protocol: HT29 human colorectal adenocarcinoma cells were cultured in RPMI 1640 cell culture medium supplemented with 10% v/v heat inactivated FCS and 50 IU/mL penicillin-streptomycin. The cells were harvested by trypsinisation, washed twice in HBSS and counted. The cells were then resuspended in HBSS to a final concentration of 2×10^7 cells/mL.
Prior to inoculation the skin on the injection site (dorsal right flank) was swabbed with alcohol. The needle was introduced through the skin into the subcutaneous space just below the animal's right shoulder, and 100 μL of cells (2×10^6 cells) were discharged. The treatment of mice began nine days after HT29 cell inoculation, the average tumour volume was 68 mm^3 (average variability of 6.1%).
Body weight and tumour dimensions (length and diameter) were measured for all animals on the first day of treatment (day 0) and then three times per week, including the termination day of the study (Day 24).
Mice were randomized, based on body weight, into two groups of ten mice on Day 0 of the study. The peptide dendrimer Dend 10-10(4) presenting 10 monomer units of the peptide RSKAKNPLYR (SEQ ID No. 6) (see Example 2) was used in this study. The vehicle control (phosphate buffered saline (PBS)) and Dend 10-10(4) dendrimer (20 mg/kg) were each administered by intra-tumoural injection once daily for five consecutive days, beginning on Day 0.
The vehicle control and Dend 10-10(4) dendrimer were administered at a dosing volume of 4.762 mL/kg (100 μL) based on a 21 g mouse. Each animal's body weight was measured immediately prior to dosing. The volume of dosing solution administered to each mouse was calculated and adjusted based on individual body weight.
Tumours were excised from all mice post mortem and weighed. Tumour volume was calculated using the equation:
V (mm^3)=length×diameter^2×π/6
ΔT/ΔC (%) was calculated using the following equation:
ΔT/ΔC %=(ΔvolumeTreatment/ΔVolumeControl)×100
where Δ=change in volume from day 0 to the final measurement day or nominated day of interest.

Sequence of PI3K P110δ (O00329 whole entry, the tested form may be a part): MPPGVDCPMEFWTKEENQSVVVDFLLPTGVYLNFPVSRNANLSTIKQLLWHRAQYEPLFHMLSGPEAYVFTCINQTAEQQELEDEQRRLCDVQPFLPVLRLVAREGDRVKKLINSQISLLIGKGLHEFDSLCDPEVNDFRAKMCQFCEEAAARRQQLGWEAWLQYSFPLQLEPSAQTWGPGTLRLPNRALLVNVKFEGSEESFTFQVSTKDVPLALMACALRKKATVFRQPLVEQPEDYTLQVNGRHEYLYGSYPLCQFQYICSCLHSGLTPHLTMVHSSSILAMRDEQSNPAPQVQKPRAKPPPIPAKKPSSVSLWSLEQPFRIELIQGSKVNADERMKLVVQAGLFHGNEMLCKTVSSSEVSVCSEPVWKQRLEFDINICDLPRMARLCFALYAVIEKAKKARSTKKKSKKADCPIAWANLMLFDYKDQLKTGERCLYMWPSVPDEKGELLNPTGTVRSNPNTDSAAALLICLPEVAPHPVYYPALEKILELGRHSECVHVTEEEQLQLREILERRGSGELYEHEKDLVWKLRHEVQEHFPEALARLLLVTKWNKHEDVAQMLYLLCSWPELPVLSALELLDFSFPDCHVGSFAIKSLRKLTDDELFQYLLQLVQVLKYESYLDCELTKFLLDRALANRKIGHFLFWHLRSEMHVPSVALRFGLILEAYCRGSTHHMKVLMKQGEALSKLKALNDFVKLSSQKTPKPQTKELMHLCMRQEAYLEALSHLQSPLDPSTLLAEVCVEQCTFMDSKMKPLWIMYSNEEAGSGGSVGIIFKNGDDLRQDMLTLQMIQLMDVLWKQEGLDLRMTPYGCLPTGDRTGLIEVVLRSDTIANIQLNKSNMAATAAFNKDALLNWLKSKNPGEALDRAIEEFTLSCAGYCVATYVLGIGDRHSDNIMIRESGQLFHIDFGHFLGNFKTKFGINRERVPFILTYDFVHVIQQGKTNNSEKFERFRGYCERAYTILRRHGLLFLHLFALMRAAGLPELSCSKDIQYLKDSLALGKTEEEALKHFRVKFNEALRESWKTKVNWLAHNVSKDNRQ
Sequence of PI3K P110δ (P27986 whole entry partner, the tested form may be a part): as the sequence (P27986 whole entry partner, species assumed) above

## CC(C)C[C@H](NC(=O)[C@@H]1CCCN1C(=O)[C@H](CC(N)=O)NC(=O)[C@H](CCCCN)NC(=O)[C@H](C)NC(=O)[C@H](CCCCN)NC(=O)[C@H](CO)NC(=O)[C@@H](N)CCCNC(=N)N)C(=O)N[C@@H](Cc1ccc(O)cc1)C(=O)N[C@@H](CCCNC(=N)N)C(=O)NCCCC[C@H](NC(=O)[C@H](CCCCNC(=O)[C@H](CCCCNC(=O)[C@H](CCCNC(=N)N)NC(=O)[C@H](Cc1ccc(O)cc1)NC(=O)[C@H](CC(C)C)NC(=O)[C@@H]1CCCN1C(=O)[C@H](CC(N)=O)NC(=O)[C@H](CCCCN)NC(=O)[C@H](C)NC(=O)[C@H](CCCCN)NC(=O)[C@H](CO)NC(=O)[C@@H](N)CCCNC(=N)N)NC(=O)[C@H](CCCNC(=N)N)NC(=O)[C@H](Cc1ccc(O)cc1)NC(=O)[C@H](CC(C)C)NC(=O)[C@@H]1CCCN1C(=O)[C@H](CC(N)=O)NC(=O)[C@H](CCCCN)NC(=O)[C@H](C)NC(=O)[C@H](CCCCN)NC(=O)[C@H](CO)NC(=O)[C@@H](N)CCCNC(=N)N)NC(=O)[C@H](CCCCNC(=O)[C@H](CCCNC(=N)N)NC(=O)[C@H](Cc1ccc(O)cc1)NC(=O)[C@H](CC(C)C)NC(=O)[C@@H]1CCCN1C(=O)[C@H](CC(N)=O)NC(=O)[C@H](CCCCN)NC(=O)[C@H](C)NC(=O)[C@H](CCCCN)NC(=O)[C@H](CO)NC(=O)[C@@H](N)CCCNC(=N)N)NC(=O)[C@H](CCCNC(=N)N)NC(=O)[C@H](Cc1ccc(O)cc1)NC(=O)[C@H](CC(C)C)NC(=O)[C@@H]1CCCN1C(=O)[C@H](CC(N)=O)NC(=O)[C@H](CCCCN)NC(=O)[C@H](C)NC(=O)[C@H](CCCCN)NC(=O)[C@H](CO)NC(=O)[C@@H](N)CCCNC(=N)N)C(=O)NCCCC[C@H](NC(=O)[C@H](CCCCNC(=O)[C@H](CCCNC(=N)N)NC(=O)[C@H](Cc1ccc(O)cc1)NC(=O)[C@H](CC(C)C)NC(=O)[C@@H]1CCCN1C(=O)[C@H](CC(N)=O)NC(=O)[C@H](CCCCN)NC(=O)[C@H](C)NC(=O)[C@H](CCCCN)NC(=O)[C@H](CO)NC(=O)[C@@H](N)CCCNC(=N)N)NC(=O)[C@H](CCCCNC(=O)[C@H](CCCCNC(=O)[C@H](CCCNC(=N)N)NC(=O)[C@H](Cc1ccc(O)cc1)NC(=O)[C@H](CC(C)C)NC(=O)[C@@H]1CCCN1C(=O)[C@H](CC(N)=O)NC(=O)[C@H](CCCCN)NC(=O)[C@H](C)NC(=O)[C@H](CCCCN)NC(=O)[C@H](CO)NC(=O)[C@@H](N)CCCNC(=N)N)NC(=O)[C@H](CCCNC(=N)N)NC(=O)[C@H](Cc1ccc(O)cc1)NC(=O)[C@H](CC(C)C)NC(=O)[C@@H]1CCCN1C(=O)[C@H](CC(N)=O)NC(=O)[C@H](CCCCN)NC(=O)[C@H](C)NC(=O)[C@H](CCCCN)NC(=O)[C@H](CO)NC(=O)[C@@H](N)CCCNC(=N)N)NC(=O)[C@H](CCCCNC(=O)[C@H](CCCNC(=N)N)NC(=O)[C@H](Cc1ccc(O)cc1)NC(=O)[C@H](CC(C)C)NC(=O)[C@@H]1CCCN1C(=O)[C@H](CC(N)=O)NC(=O)[C@H](CCCCN)NC(=O)[C@H](C)NC(=O)[C@H](CCCCN)NC(=O)[C@H](CO)NC(=O)[C@@H](N)CCCNC(=N)N)NC(=O)[C@H](CCCNC(=N)N)NC(=O)[C@H](Cc1ccc(O)cc1)NC(=O)[C@H](CC(C)C)NC(=O)[C@@H]1CCCN1C(=O)[C@H](CC(N)=O)NC(=O)[C@H](CCCCN)NC(=O)[C@H](C)NC(=O)[C@H](CCCCN)NC(=O)[C@H](CO)NC(=O)[C@@H](N)CCCNC(=N)N)C(=O)NCCC(N)=O [Dend 10-10(4)]
PI3K P110δ
  inhibition at 1 µM: 56%
PI3K beta; dendrimer conc. 1 μM, read-out: Percentage (%) kinase inhibition PI3K P110β
  inhibition at 1 µM: 61%
PI3K beta; final concentration 50 μM
  PIK3 beta % activity relative to control: 83%
PKC alpha
  inhibition at 1 µM: 78%
PKC beta I
  inhibition at 1 µM: 67%
PKC beta II
  inhibition at 1 µM: 75%
[1]; 20 mg/kg intra-tumoural once daily for five days, Day 0
  Tumour volume Average: 68.0 mm^3
[1]; 20 mg/kg intra-tumoural once daily for five days, Day 2
  Tumour volume Average: 136.6 mm^3
[1]; 20 mg/kg intra-tumoural once daily for five days, Day 4
  Tumour volume Average: 211.9 mm^3
[1]; 20 mg/kg intra-tumoural once daily for five days, Day 7
  Tumour volume Average: 248.6 mm^3
[1]; 20 mg/kg intra-tumoural once daily for five days, Day 11
  Tumour volume Average: 300.9 mm^3
[1]; 20 mg/kg intra-tumoural once daily for five days, Day 14
  Tumour volume Average: 323.9 mm^3
[1]; 20 mg/kg intra-tumoural once daily for five days, Day 16
  Tumour volume Average: 391.0 mm^3
[1]; 20 mg/kg intra-tumoural once daily for five days, Day 18
  Tumour volume Average: 476.9 mm^3
[1]; 20 mg/kg intra-tumoural once daily for five days, Day 21
  Tumour volume Average: 601.5 mm^3
[1]; 20 mg/kg intra-tumoural once daily for five days, Day 24
  Tumour volume Average: 702.1 mm^3
[1]; 20 mg/kg intra-tumoural once daily for five days, Day 24, control 0.962 g
  average tumour weight at the end of the study: 0.437 g
[1]; FIG. 16
  tumour growth compared to the vehicle only control: markedly inhibited
[1]; Day 0
  Tumour volume Delta avg: 0.0 mm^3
  dT/dC [%]: 100.0%
[1]; Day 2
  Tumour volume Delta avg: 68.6 mm^3
  dT/dC [%]: 134.3%
[1]; Day 4
  Tumour volume Delta avg: 144.0 mm^3
  dT/dC [%]: 102.0%
[1]; Day 7
  Tumour volume Delta avg: 180.6 mm^3
  dT/dC [%]: 68.1%
[1]; Day 11
  Tumour volume Delta avg: 232.9 mm^3
  dT/dC [%]: 58.0%
[1]; Day 14
  Tumour volume Delta avg: 255.9 mm^3
  dT/dC [%]: 44.6%
[1]; Day 16
  Tumour volume Delta avg: 323.1 mm^3
  dT/dC [%]: 45.2%
[1]; Day 18
  Tumour volume Delta avg: 408.9 mm^3
  dT/dC [%]: 47.1%
[1]; Day 21
  Tumour volume Delta avg: 598.7 mm^3
  dT/dC [%]: 55.7%
[1]; Day 24
  Tumour volume Delta avg: 710.4 mm^3
  dT/dC [%]: 54.5%
